In patent publication US8912318B2, “Nucleobase-functionalized conformationally restricted nucleotides and oligonucleotides for targeting nucleic acids” (University of Idaho, priority 2009, dated 2014):
Read-outs that look alike come from different tables or passages of the source.

Legend:
[1] = tested on: dsDNA target (SEQ ID NO: 2 : SEQ ID NO: 3); assay: UV thermal denaturation of triplexes formed by TFOs with dsDNA; type: binding; conditions: for Tm of triplex: pH 7.0 phosphate buffer, 140 mM KCl, 1.0 μM each strand; for ΔTm/mod of triplex: relative to reference DNA TFO T1, per modification
[2] = tested on: dsDNA target (SEQ ID NO: 4 : SEQ ID NO: 5), B:B′ = A:T; assay: Thermal denaturation of matched triplexes in the presence of Mg2+ ions; type: binding; conditions: A:T (match); 10 mM MgCl2
Procedure: (§1) Concentrations of all TFOs were determined using the extinction coefficient of 118500 L×(mol×cm)-1. 1 mL solution containing 1.0 nmol of each strand was denatured by heating and subsequently cooled to the starting temperature of the experiment in quartz optical cells with a path-length of 1.0 cm. Thermal denaturation profiles were recorded on a Cary 100 UV/VIS spectrophotometer equipped with a 12-cell Peltier temperature controller using a ramp of 0.5° C./min. Thermal denaturation temperatures (Tm) for triplex to duplex transitions were determined as the first derivative of difference thermal denaturation profiles (dA260 vs. T), which were obtained by subtracting the thermal denaturation profile of the dsDNA target (always included as one of the samples in multicell holder of UV-Vis spectrophotometer) from the raw thermal denaturation profile of the TFO+dsDNA (FIG. 13). Reported Tm-values are an average of at least two experiments within ±1.0° C.

[3] = tested on: Hoogsteen mismatched dsDNA targets (SEQ ID NO: 4 : SEQ ID NO: 5), B:B′ = T:A, C:G, G:C; assay: Thermal denaturation of Hoogsteen mismatched triplexes in the presence of Mg2+ ions; type: binding; conditions: for Tm of triplex: 10 mM MgCl2; for ΔTm: change relative to matched triplex
Procedure: as §1

[4] = tested on: complementary or mismatched DNA targets; assay: Fluorescence quantum yields and extinction coefficients with DNA targets; type: physicochemical
[5] = tested on: complementary or mismatched DNA targets; conditions: cited from earlier work
complementary DNA = assay: UV thermal denaturation of 13-mer fluorophore probes with complementary DNA; type: binding; conditions: B = A
mismatched DNA targets = assay: UV thermal denaturation of 13-mer fluorophore probes with mismatched DNA targets; type: binding; conditions: for Tm / ΔTm: DNA: 3′-d(GCG TTG BGT TGC G); for ΔTm: relative to B = A; for mismatch ΔTm: mismatched vs complementary duplex
[6] = tested on: complementary or mismatched DNA targets; assay: Steady-state fluorescence emission intensity with DNA targets; conditions: for discrimination factor Im/Imm, range: intensity of duplex with complementary DNA divided by intensity of SSP or mismatched duplexes
complementary RNA = assay: UV thermal denaturation of 13-mer probes with complementary RNA; type: binding; conditions: B = A
mismatched RNA targets = assay: UV thermal denaturation of 13-mer probes with mismatched RNA targets; type: binding
[7] = vs. the C-mismatched DNA target
[8] = complementary DNA, [Na+] = 110 mM, pH 7.0, 1.0 μM each strand

V1′: TFO TTT TT^mC TBT ^mCT^mC T^mCT, B = V′ (DNA TTTTTNTNTNTNTNT; 5-methyl-C, modified nucleotide V', chemistry not fully specified)
Tm of triplex [1]: 37.0 °C | ΔTm/mod of triplex [1]: +8.0 °C | Tm of triplex [2]: 46.0 °C | Tm of triplex ([3]; C:G mismatch): 14.5 °C | ΔTm ([3]; C:G mismatch): −31.5 °C | Tm of triplex ([3]; G:C mismatch): 25.5 °C | ΔTm ([3]; G:C mismatch): −20.5 °C | Tm of triplex ([3]; T:A mismatch): 11.0 °C | ΔTm ([3]; T:A mismatch): −36.0 °C

O=C(O)CCCc1ccc2ccc3cccc4ccc1c2c34 [pyrenebutanoic acid]
fluorescence quantum yield ΦF ([4]; in MeOH, relative to 9,10-diphenylanthracene): 0.069 | fluorescence quantum yield ΦF, reported value [5]: 0.065

ON10: 5′-CG CAA CPC AAC GC (DNA CGCAACNCAACGC; listed as DNA, chemistry not fully specified)
Tm (complementary DNA; DNA: 3′-d(GCG TTG BGT TGC G)): 52.5 °C | Tm (mismatched DNA targets; B = C): 43.0 °C | ΔTm (mismatched DNA targets; B = C): (−9.5) ° C. | Tm (mismatched DNA targets; B = G): 48.0 °C | ΔTm (mismatched DNA targets; B = G): (−4.5) ° C. | Tm (mismatched DNA targets; B = T): 46.0 °C | ΔTm (mismatched DNA targets; B = T): (−6.5) ° C. | discrimination factor Im/Imm, range [6]: 7.3-15.9

Y1′: TFO TTT TT^mC TBT ^mCT^mC T^mCT, B = Y′ (DNA TTTTTNTNTNTNTNT; 5-methyl-C, modified nucleotide Y', chemistry not fully specified)
Tm of triplex [1]: 37.5 °C | ΔTm/mod of triplex [1]: +8.5 °C | Tm of triplex [2]: 47.5 °C | Tm of triplex ([3]; C:G mismatch): 13.5 °C | ΔTm ([3]; C:G mismatch): −34.0 °C | Tm of triplex ([3]; G:C mismatch): 24.5 °C | ΔTm ([3]; G:C mismatch): −23.0 °C | Tm of triplex ([3]; T:A mismatch): 12.0 °C | ΔTm ([3]; T:A mismatch): −35.5 °C

O=C(NCC#Cc1cn([C@H]2C[C@H](O)[C@@H](CO)O2)c(=O)[nH]c1=O)c1ccc2ccc3cccc4ccc1c2c34 [P″, 5-[3-(1-pyrenecarboxamido)propynyl]-2′-deoxyuridine]
Fluorescence quantum yield (φF) ([4]; DNA target B = A, T = 5° C.): 0.33-0.58

SEQ ID NO: 10: 5′-d(CGC AAC γCA ACG C (DNA CGCAACNCAACGC; γ modified nucleotide, chemistry not fully specified)
Tm (complementary DNA; DNA: 3′-d(GCG TTG BGT TGC G)): 47.0 °C | Tm (mismatched DNA targets; B = C): 45.5 °C | ΔTm (mismatched DNA targets; B = C): (−1.5) ° C. | Tm (mismatched DNA targets; B = G): 46.5 °C | ΔTm (mismatched DNA targets; B = G): (-0.5) ° C. | Tm (mismatched DNA targets; B = T): 45.5 °C | ΔTm (mismatched DNA targets; B = T): (−1.5) ° C.

c1ccc(-c2c3ccccc3c(-c3ccccc3)c3ccccc23)cc1 [9,10-diphenylanthracene]
fluorescence quantum yield ΦF [5]: 0.95

SEQ ID NO: 11: 5′-d(CGC AAC αCA ACG C (DNA CGCAACNCAACGC; α modified nucleotide, chemistry not fully specified)
Tm (complementary DNA; DNA: 3′-d(GCG TTG BGT TGC G)): 44.5 °C | Tm (mismatched DNA targets; B = C): 43.0 °C | ΔTm (mismatched DNA targets; B = C): (−1.5) ° C. | Tm (mismatched DNA targets; B = G): 46.0 °C | ΔTm (mismatched DNA targets; B = G): (+1.5) ° C. | Tm (mismatched DNA targets; B = T): 45.0 °C | ΔTm (mismatched DNA targets; B = T): (+0.5) ° C.

ON13: 5′-CG CAA AP′A AAC GC (DNA CGCAAANAAACGC; modified nucleotide P', chemistry not fully specified)
discrimination factor Im/Imm, range [6]: 3.4-14.1

ON14: 5′-CG CAA CP′C AAC GC (DNA CGCAACNCAACGC; modified nucleotide P', chemistry not fully specified)
Tm (complementary DNA; DNA: 3′-d(GCG TTG BGT TGC G)): 51.5 °C | Tm (mismatched DNA targets; B = C): 40.5 °C | ΔTm (mismatched DNA targets; B = C): (−11.5) ° C. | Tm (mismatched DNA targets; B = G): 44.5 °C | ΔTm (mismatched DNA targets; B = G): (−7.0) ° C. | Tm (mismatched DNA targets; B = T): 44.5 °C | ΔTm (mismatched DNA targets; B = T): (−7.0) ° C. | ΦF,m/ΦF,mm [4, 7]: ~3.2 | discrimination factor Im/Imm [6, 7]: 5.8

X1′: TFO TTT TT^mC TBT ^mCT^mC T^mCT, B = X′ (DNA TTTTTNTNTNTNTNT; 5-methyl-C, modified nucleotide X', chemistry not fully specified) [reference compound]
Tm of triplex [1]: 35.5 °C | ΔTm/mod of triplex [1]: +6.5 °C | Tm of triplex [2]: 45.0 °C | Tm of triplex ([3]; C:G mismatch): 15.5 °C | ΔTm ([3]; C:G mismatch): −29.5 °C | Tm of triplex ([3]; G:C mismatch): 22.5 °C | ΔTm ([3]; G:C mismatch): −22.5 °C | Tm of triplex ([3]; T:A mismatch): 10.0 °C | ΔTm ([3]; T:A mismatch): −35.0 °C

ON16: 5′-CG CAA TP′T AAC GC (DNA CGCAATNTAACGC; modified nucleotide P', chemistry not fully specified)
discrimination factor Im/Imm, range [6]: 2.9-11.4

ON1: unmodified reference strand 5′-CG CAA ATA AAC GC (DNA CGCAAATAAACGC; unmodified DNA) [reference compound]
Tm (complementary DNA; [8]): 48.5 °C | mismatch ΔTm (mismatched DNA targets; DNA target B = C): −10.0 °C | mismatch ΔTm (mismatched DNA targets; DNA target B = G): −5.0 °C | mismatch ΔTm (mismatched DNA targets; DNA target B = T): −9.0 °C

ON11: 5′-CG CAA GPG AAC GC (DNA CGCAAGNGAACGC; listed as DNA, chemistry not fully specified)
discrimination factor Im/Imm, range [6]: 8.3-41.9

SEQ ID NO: 9: 5′-d(CGC AAC βCA ACG C (DNA CGCAACNCAACGC; β modified nucleotide, chemistry not fully specified)
Tm (complementary DNA; DNA: 3′-d(GCG TTG BGT TGC G)): 56.5 °C | Tm (mismatched DNA targets; B = C): 43.0 °C | ΔTm (mismatched DNA targets; B = C): (−13.0) ° C. | Tm (mismatched DNA targets; B = G): 46.5 °C | ΔTm (mismatched DNA targets; B = G): (−10.0) ° C. | Tm (mismatched DNA targets; B = T): 48.5 °C | ΔTm (mismatched DNA targets; B = T): (−8.0) ° C.

ON2: unmodified reference strand 5′-CG CAA CTC AAC GC (DNA CGCAACTCAACGC; DNA, backbone not given here) [reference compound]
Tm (complementary DNA; DNA: 3′-d(GCG TTG BGT TGC G)): 55.5 °C | Tm (complementary DNA; [8]): 55.5 °C | mismatch ΔTm (mismatched DNA targets; DNA target B = C): −13.5 °C | mismatch ΔTm (mismatched DNA targets; DNA target B = G): −7.0 °C | mismatch ΔTm (mismatched DNA targets; DNA target B = T): −9.0 °C | Tm (mismatched DNA targets; B = C): 42.0 °C | ΔTm (mismatched DNA targets; B = C): (−13.5) ° C. | Tm (mismatched DNA targets; B = G): 48.5 °C | ΔTm (mismatched DNA targets; B = G): (−7.0) ° C. | Tm (mismatched DNA targets; B = T): 46.5 °C | ΔTm (mismatched DNA targets; B = T): (−9.0) ° C. | Tm (complementary RNA): 51.5 °C | mismatch DTm (mismatched RNA targets; RNA target B = C): −15.5 °C | mismatch DTm (mismatched RNA targets; RNA target B = G): −3.0 °C | mismatch DTm (mismatched RNA targets; RNA target B = U): −13.5 °C
